# Experimental data as given in patent publication US8084479B2, “Thiazole compounds and methods of use” (Amgen Inc., priority 2006, dated 2011).
# Molecular target: PKBα (Homo sapiens, UniProt P31749)
# Assay: PKB kinase assay (P33-labeled ATP, peptide substrate, filter plate)
# Type: biochemical
# Details: PKBα enzyme (full length or kinase domain with pleckstrin domain deleted)
# Excerpt: The kinase assay for evaluating PKB activity comprises active PKB enzymes, a PKB specific substrate, and P^33-labeled ATP. […] The phosphorylated substrate was captured by a phosphocellulose membrane filter plate (MLLIPORE) and measured by a Wallac Microbeta liquid scintillation counter (Perkin Elmer).
# Sequence of PKBα (P31749 118-480 limits assumed): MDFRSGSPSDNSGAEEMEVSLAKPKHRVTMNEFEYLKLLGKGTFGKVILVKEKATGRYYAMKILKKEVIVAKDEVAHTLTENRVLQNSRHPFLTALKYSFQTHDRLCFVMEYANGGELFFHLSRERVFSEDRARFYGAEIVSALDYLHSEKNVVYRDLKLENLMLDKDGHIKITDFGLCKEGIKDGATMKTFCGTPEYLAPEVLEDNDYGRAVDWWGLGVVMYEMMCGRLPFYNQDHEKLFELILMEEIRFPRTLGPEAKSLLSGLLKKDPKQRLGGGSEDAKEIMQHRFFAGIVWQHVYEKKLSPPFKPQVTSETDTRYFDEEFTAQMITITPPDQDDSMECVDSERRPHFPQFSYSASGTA
row,Compound,IC50 [nM]
1,"N[C@H](CNc1ncc(-c2cnc3c(c2)CC(=O)N3)s1)Cc1ccc(C(F)(F)F)nc1 [Example 227, 5-(2-((S)-2-amino-3-(6-(trifluoromethyl)pyridin-3-yl)propylamino)thiazol-5-yl)-1H-pyrrolo[2,3-b]pyridin-2(3H)-one]",50 to 1000
2,"CCOCc1nc(NC[C@@H](N)Cc2ccc(Cl)cc2)sc1-c1nc2ccncc2s1 [Example 77, N—((S)-2-amino-3-(4-chlorophenyl)propyl)-4-(ethoxymethyl)-5-(thiazolo[5,4-c]pyridin-2-yl)thiazol-2-amine]",50 to 1000
3,"NC(CNc1ncc(-c2ccc3c(c2)CC(=O)N3)s1)Cc1ccc(C(F)(F)F)cc1F (stereo not drawn) [Example 176, 5-(2-(-2-amino-3-(2-fluoro-4-(trifluoromethyl)phenyl)propylamino)thiazol-5-yl)indolin-2-one]",50 to 1000
4,"N[C@H](CNc1ncc(-c2ccc3[nH]c(=O)[nH]c3c2)s1)Cc1ccc(C(F)(F)F)cc1 [Example 193, 5-(2-((S)-2-amino-3-(4-(trifluoromethyl)-phenyl)propylamino)thiazol-5-yl)-1H-benzo[d]imidazol-2(3H)-one]",50 to 1000
5,"N[C@H](CNc1ncc(-c2ccc3cnccc3c2)s1)Cc1c[nH]c2ccccc12 [Example 5, N—((S)-2-amino-3-(1H-indol-3-yl)propyl)-5-(isoquinolin-6-yl)thiazol-2-amine]",50 to 1000
6,"C[C@H](Nc1ncc(-c2ccc3cnccc3c2)s1)[C@@H](N)Cc1ccc(C(F)(F)F)cc1 [Example 235, N-((2S,3S)-3-amino-4-(4-(trifluoromethyl)phenyl)butan-2-yl)-5-(isoquinolin-6-yl)thiazol-2-amine]",50 to 1000
7,"C[C@@H](c1ccc(C(F)(F)F)cc1)[C@H](N)CNc1ncc(-c2cc(F)c3c(c2)CC(=O)N3)s1 [Example 222, 5-(2-((2S,3S)-2-amino-3-(4-(trifluoromethyl)phenyl)butylamino)thiazol-5-yl)-7-fluoroindolin-2-one]",50 to 1000
8,"COCc1nc(NC[C@@H](N)Cc2cccc(Cl)c2)sc1-c1nc2ccncc2s1 [Example 18, N—((S)-2-amino-3-(3-chlorophenyl)propyl)-4-(methoxymethyl)-5-(thiazolo[5,4-c]pyridin-2-yl)thiazol-2-amine]",1000 to 10000
9,"N[C@H](CNc1ncc(-c2nc3ccncc3s2)s1)Cc1ccc(Cl)c(Cl)c1 [Example 97, N—((S)-2-Amino-3-(3,4-dichlorophenyl)propyl)-5-(thiazolo[5,4-c]pyridin-2-yl)thiazol-2-amine]",50 to 1000
10,"N[C@H](CNc1ncc(-c2ccc3c(c2)CNC3=O)s1)Cc1ccc(Cl)s1 [Example 239, 3,5-(2-((S)-2-amino-3-(5-chlorothiophen-2-yl)propylamino)thiazol-5-yl)isoindolin-1-one]",1000 to 10000
11,"N[C@H](CNc1nc(-c2ccccn2)c(-c2nc3ccncc3s2)s1)Cc1ccc(C(F)(F)F)cc1 [Example 60, N—((S)-2-amino-3-(4-(trifluoromethyl)phenyl)propyl)-4-(pyridin-2-yl)-5-(thiazolo[5,4-c]pyridin-2-yl)thiazol-2-amine]",1000 to 10000
12,"N#Cc1nc(NC[C@@H](N)Cc2ccc(C(F)(F)F)cc2)sc1-c1ccc2cnccc2c1 [Example 63, 2-((S)-2-amino-3-(4-(trifluoromethyl)phenyl)propylamino)-5-(isoquinolin-6-yl)thiazole-4-carbonitrile]",1000 to 10000
13,"Nc1noc2ccc(-c3cnc(NC[C@@H](N)Cc4c[nH]c5ccccc45)s3)cc12 [Example 38, 5-(2-((S)-2-amino-3-(1H-indol-3-yl)propylamino)thiazol-5-yl)benzo[d]isoxazol-3-amine]",50 to 1000
14,"c1ccc(CNc2ncc(-c3nc4ccncc4s3)s2)cc1 [Example 28, N-benzyl-5-(thiazolo[5,4-c]pyridin-2-yl)thiazol-2-amine]",1000 to 10000
15,"Cn1c(=O)[nH]c2ccc(-c3sc(NC[C@@H](N)Cc4ccc(F)cc4)nc3-c3ccccc3F)cc21 [Example 250, 6-(2-((S)-2-amino-3-(4-fluorophenyl)propylamino)-4-(2-fluorophenyl)thiazol-5-yl)-1-methyl-1H-benzo[d]imidazol-2(3H)-one]",1000 to 10000
16,"C[C@@H](Nc1ncc(-c2ccc3[nH]c(=O)oc3c2)s1)[C@@H](N)Cc1ccc(C(F)(F)F)cc1 [Example 231, 6-(2-((2R,3S)-3-amino-4-(4-(trifluoromethyl)phenyl)butan-2-ylamino)thiazol-5-yl)benzo[d]oxazol-2(3H)-one]",50 to 1000
17,"N[C@H](CNc1ncc(-c2ccc3cnncc3c2)s1)Cc1ccc(C(F)(F)F)cc1 [Example 64, N—((S)-2-amino-3-(4-(trifluoromethyl)phenyl)propyl)-5-(phthalazin-6-yl)thiazol-2-amine]",50 to 1000
18,"COCc1nc(NC[C@@H](N)Cc2ccc(C(F)(F)F)cc2)sc1-c1ccc2[nH]nc(C)c2c1 [Example 15, N—((S)-2-amino-3-(4-(trifluoromethyl)phenyl)propyl)-4-(methoxymethyl)-5-(3-methyl-1H-indazol-5-yl)thiazol-2-amine]",50 to 1000

# Further lines, results first:
row,IC50 [nM],Compound
1,50 to 1000,"COCc1nc(NC[C@H](Cc2ccc(C(F)(F)F)cc2)NCCN2CCOCC2)sc1-c1nc2ccncc2s1 [Example 34, 4-(Methoxymethyl)-N—((S)-2-(2-morpholinoethylamino)-3-(4-(trifluoromethyl)phenyl)propyl)-5-(thiazolo[5,4-c]pyridin-2-yl)thiazol-2-amine]"
2,< 50,"COCc1nc(NC[C@@H](N)Cc2ccc(C(F)(F)F)cc2)sc1-c1ccc2cnccc2n1 [Example 71, N—((S)-2-amino-3-(4-(trifluoromethyl)phenyl)propyl)-4-(methoxymethyl)-5-(1,6-naphthyridin-2-yl)thiazol-2-amine]"
3,< 50,"NC(CNc1ncc(-c2ccc3cnccc3c2)s1)Cc1ccc(O)c(F)c1 (stereo not drawn) [Example 218, 4-(2-Amino-3-(5-(isoquinolin-6-yl)thiazol-2-ylamino)propyl)-2-fluorophenol]"
4,50 to 1000,"C[C@@H](c1ccc(C(F)(F)F)cc1)[C@H](N)CNc1ncc(-c2cnc3c(c2)CC(=O)N3)s1 [Example 228, 5-(2-((2S,3S)-2-amino-3-(4-(trifluoromethyl)phenyl)butylamino)thiazol-5-yl)-1H-pyrrolo[2,3-b]pyridin-2(3H)-one]"
5,< 50,"N[C@H](CNc1nc(C#CCO)c(-c2ccc3[nH]c(=O)oc3c2)s1)Cc1ccc(C(F)(F)F)cc1 [Example 150, 6-(2-((S)-2-amino-3-(4-(trifluoromethyl)phenyl)propylamino)-4-(3-hydroxyprop-1-ynyl)thiazol-5-yl)benzo[d]oxazol-2(3H)-one]"
6,< 50,"C[C@@H](Nc1ncc(-c2ccc3cnccc3c2)s1)[C@@H](N)Cc1ccc(C(F)(F)F)cc1 [Example 230, N-((2R,3S)-3-amino-4-(4-(trifluoromethyl)phenyl)butan-2-yl)-5-(isoquinolin-6-yl)thiazol-2-amine]"
7,< 50,"N[C@H](CNc1ncc(-c2nc3ccncc3s2)s1)Cc1ccc(Cl)cc1 [Example 99, N—((S)-2-Amino-3-(4-chlorophenyl)propyl)-5-(thiazolo[5,4-c]pyridin-2-yl)thiazol-2-amine]"
8,< 50,"CC#Cc1nc(NC[C@@H](N)Cc2ccc(C(F)(F)F)cc2)sc1-c1ccc2[nH]nc(C)c2c1 [Example 153, N—((S)-2-amino-3-(4-(trifluoromethyl)phenyl)propyl)-5-(3-methyl-1H-indazol-5-yl)-4-(prop-1-ynyl)thiazol-2-amine]"
9,< 50,"N[C@H](CNc1ncc(-c2ccc3cnccc3c2)s1)Cc1ccc(Cl)c(F)c1 [Example 85, N—((S)-2-Amino-3-(4-chloro-3-fluorophenyl)propyl)-5-(isoquinolin-6-yl)thiazol-2-amine]"
10,< 50,"NC(CNc1ncc(-c2ccc3c(c2)CC(=O)N3)s1)Cc1ccc(C(F)(F)F)c(F)c1 (stereo not drawn) [Example 179, 5-(2-(-2-amino-3-(3-fluoro-4-(trifluoromethyl)phenyl)propylamino)thiazol-5-yl)indolin-2-one]"
11,< 50,"N[C@H](CNc1ncc(-c2ccc3[nH]ncc3c2)s1)Cc1ccc(Cl)cc1 [Example 4, N—((S)-2-amino-3-(4-chlorophenyl)propyl)-5-(1H-indazol-5-yl)thiazol-2-amine]"
12,< 50,"N[C@H](CNc1ncc(-c2ccc3cncnc3c2)s1)Cc1ccc(C(F)(F)F)cc1 [Example 253, N—((S)-2-Amino-3-(4-(trifluoromethyl)phenyl)propyl)-5-(quinazolin-7-yl)thiazol-2-amine]"
13,< 50,"N[C@H](CNc1ncc(-c2ccc3c(c2)CC(=O)N3)s1)Cc1ccc(Cl)cc1 [Example 54, 5-(2-((S)-2-Amino-3-(4-chlorophenyl)propylamino)thiazol-5-yl)indolin-2-one]"
14,< 50,"N[C@H](CNc1ncc(-c2ccc3c(c2F)CC(=O)N3)s1)Cc1ccc(C(F)(F)F)cc1 [Example 224, 5-(2-((S)-2-amino-3-(4-(trifluoromethyl)phenyl)propylamino)thiazol-5-yl)-4-fluoroindolin-2-one]"
15,< 50,"CCC[C@@H](c1ccc(C(F)(F)F)cc1)[C@H](N)CNc1ncc(-c2ccc3cnccc3c2)s1 [Example 157, N-((2S,3S)-2-amino-3-(4-(trifluoromethyl)phenyl)hexyl)-5-(isoquinolin-6-yl)thiazol-2-amine]"
16,< 50,"CNc1cc2cc(-c3cnc(NC[C@@H](N)Cc4ccc(Cl)cc4)s3)ccc2cn1 [Example 139, 6-(2-((S)-2-amino-3-(4-chlorophenyl)propylamino)thiazol-5-yl)-N-methylisoquinolin-3-amine]"
17,< 50,"COc1cc(C[C@H](N)CNc2ncc(-c3ccc4cnccc4c3)s2)ccc1C(F)(F)F [Example 205, N—((S)-2-amino-3-(3-methoxy-4-(trifluoromethyl)phenyl)propyl)-5-(isoquinolin-6-yl)thiazol-2-amine]"
18,< 50,"N[C@H](CNc1ncc(-c2ccc3cnccc3c2)s1)[C@@H](CO)c1ccc(C(F)(F)F)cc1 [Example 159, (2S,3S)-3-amino-4-(5-(isoquinolin-6-yl)thiazol-2-ylamino)-2-(4-(trifluoromethyl)phenyl)butan-1-ol]"
